Assay results from paper PMC12656546, “Enterohepatic Recirculation-Mediated Reabsorption of Aristolochic Acid I: Revealed by Toxicokinetics and Metabolite Identification in Rats” (Toxics, 2025).
Values joined by “and” are separate entries in the source; they are usually repeats but may differ in a detail not shown here. Equal values may be shown once. Read-outs that look alike come from different tables or passages of the source.

What was measured:
Caco-2 monolayers = settings: cited from earlier work
[1] = Toxicokinetic study of AAI after single oral administration (plasma, UPLC-QQQ-MS/MS, NCA); assay type: in vivo, F344 rats; settings: for tmax: read-out: tmax
Description: For toxicokinetic study, forty-eight […] F344 rats (specific pathogen-free grade) were enrolled in the study, with equal numbers of males and females. All rats were purchased from Charles River Laboratory (Raleigh, NC, USA). All rats were confirmed to be healthy based on a series of physical health examinations. Rats were acclimated for 5 days at a temperature of 20–26 °C, humidity of 40–70% and a 12 h light/dark circle. The rats were randomly divided into four groups (n = 12 per group), with equal numbers of males and females in each group. The allocation was performed separately for each sex (female and male) based on body weight using a stratified randomization method. During the experiment, rats were fasted and had access to water ad libitum. To minimize confounding factors, treatments and measurements were randomized within each session. Cages from different groups were evenly distributed across racks in the same room to reduce bias from light and temperature. This study was approved by the Institutional Animal Care and Use Committee (IACUC) of the National Drug Safety Evaluation Center (Approval No. IACUC-2024-K011, 20 September 2024).
During the experiment, each rat received a single oral administration via gastric gavage. Rats in the control group were administered with 0.5% sodium carboxymethyl cellulose (CMC-Na) suspension. For the treatment groups, rats were administered with gavage solution containing 10, 30 and 100 mg/kg of AAI. The gavage solution was prepared by uniformly dispersing the reference standard of AAI in the 0.5% CMC-Na solution. After oral administration, blood samples were collected from the postorbital vein plex of rats and immediately placed in EDTA tubes. To capture potential reabsorption which might occur long after AAI administration, 15 blood sampling time points were established for each dose group. A sparse sampling approach was employed to avoid excessive blood loss in each rat. For each dosage, 12 rats were subdivided into two groups. For the first group, blood samples were collected from 6 rats at 10, 30, 60, 90, 120, 240, 420, and 600 min after AAI administration; for the second group, blood samples were collected from these 6 rats at 12, 14, 16, 18, 20, 22, and 24 h after AAI administration. Therefore, the experimental design ensured that six biological replicates were obtained for each sampling time point, enabling robust toxicokinetic analysis.
Rat plasma samples were prepared as follows: Blood was centrifuged at 13,200 rpm for 10 min. Then, 25 μL of retrieved plasma was transferred to 2 mL centrifuge tubes, followed by the addition of 75 μL of methanol/acetonitrile solution (v/v, 1∶1) containing indomethacin as internal standard (IS). After vortexing for 2 min and centrifugation for 10 min at 13,200 rpm, the supernatant was used as study samples for quantitative analysis. Quality control samples (QCs) and calibration standards were prepared by spiking blank plasma with different concentrations of AAI standard solution. The QCs and calibration standards were processed using identical procedures as the study samples.
A method of ultra-performance liquid chromatography coupled with triple quadrupole tandem mass spectrometry (UPLC-QQQ-MS/MS) was developed to achieve the quantitation of AAI in rat plasma. The LC-MS/MS analysis was performed using an Acquity UPLC I-Class system coupled with an Xevo TQ XS spectrometer (Waters, Milford, MA, USA). An Acquity UPLC BEH C18 column (2.1 mm × 50 mm, 1.7 μm, Waters, Milford, MA, USA) was employed for chromatographic separation. The mobile phases consisted of water containing 5 mmol/L ammonium formate/0.1% formic acid (A) and acetonitrile (B). The gradient elution was set as follows: 1–4 min, 10–90% B; 4–5 min, 90% B; 5–5.01 min, 90–10% B; 5.01–7 min, 10% B. The flow rate was set at 0.4 mL/min. The column temperature was maintained at 40 °C. A sample volume of 2 μL was injected for analysis. […]

[2] = 10 mg/kg single oral, rat plasma, mean ± SD
[3] = 30 mg/kg single oral, rat plasma, mean ± SD
[4] = 100 mg/kg single oral, rat plasma, mean ± SD
[5] = both sexes, F344, rat, plasma, po, 10 mg/kg, 10 mg/kg single oral, rat plasma, mean ± SD
[6] = both sexes, F344, rat, plasma, po, 30 mg/kg, 30 mg/kg single oral, rat plasma, mean ± SD
[7] = both sexes, F344, rat, plasma, po, 30 mg/kg, medium-dose (30 mg/kg), individual pooled profiles (animal pairs), Table S4
[8] = both sexes, F344, rat, plasma, po, 100 mg/kg, 100 mg/kg single oral, rat plasma, mean ± SD
[9] = high-dose (100 mg/kg), individual pooled profiles (animal pairs), Table S4, 100 mg/kg

## COc1cccc2c1cc([N+](=O)[O-])c1c(C(=O)O)cc3c(c12)OCO3 [AAI, Aristolochic acid I]
Caco-2 monolayers
  passive diffusion ability across Caco-2 monolayers: moderate passive diffusion ability
[1]; [2]
  CL/F: 1.66 ± 0.37 L/h
  Vd: 3.36 ± 1.97 L
[1]; [3]
  CL/F: 1.22 ± 0.30 L/h
  Vd: 4.67 ± 0.81 L
[1]; [4]
  CL/F: 1.13 ± 0.59 L/h
  Vd: 8.42 ± 7.24 L
[1]; F344, rat, plasma, po, 10 mg/kg, low-dose (10 mg/kg), individual pooled profiles (animal pairs), Table S4
  AUC(0-t): 843 ng·h/mL
[1]; F344, rat, plasma, po, 10 mg/kg, low-dose (10 mg/kg), individual pooled profiles (animal pairs), Table S4, read-out: Cmax
  Cmax: 562 ng/mL
[1]; [5]
  AUC(0-t): 969 ± 140 ng·h/mL
  half-life: 78.6 ± 30.6 min
  tmax: 41.4 ± 36 min
[1]; both sexes, F344, rat, plasma, po, 10 mg/kg, 10 mg/kg single oral, rat plasma, mean ± SD, read-out: Cmax
  Cmax: 457 ± 129 ng/mL
[1]; both sexes, F344, rat, plasma, po, 10 mg/kg, low-dose (10 mg/kg oral), 14 h, individual rats M104,M105,M106,F104,F105,F106, below LLOQ set to zero
  concentration at 14 h: 0 ng/mL
[1]; both sexes, F344, rat, plasma, po, 10 mg/kg, low-dose (10 mg/kg oral), 16 h, individual rats M104,M105,M106,F104,F105,F106, below LLOQ set to zero
  concentration at 16 h: 0 ng/mL
[1]; both sexes, F344, rat, plasma, po, 10 mg/kg, low-dose (10 mg/kg oral), 18 h, individual rats M104,M105,M106,F104,F105,F106, below LLOQ set to zero
  concentration at 18 h: 0 ng/mL
[1]; both sexes, F344, rat, plasma, po, 10 mg/kg, low-dose (10 mg/kg oral), 20 h, individual rats M104,M105,M106,F104,F105,F106, below LLOQ set to zero
  concentration at 20 h: 0 ng/mL
[1]; both sexes, F344, rat, plasma, po, 10 mg/kg, low-dose (10 mg/kg oral), 22 h, individual rats M104,M105,M106,F104,F105,F106, below LLOQ set to zero
  concentration at 22 h: 0 ng/mL
[1]; both sexes, F344, rat, plasma, po, 10 mg/kg, low-dose (10 mg/kg oral), 24 h, individual rats M104,M105,M106,F104,F105,F106, below LLOQ set to zero
  concentration at 24 h: 0 ng/mL
[1]; both sexes, F344, rat, plasma, po, 10 mg/kg, low-dose (10 mg/kg), individual pooled profiles (animal pairs), Table S4
  AUC(0-t): 825 ng·h/mL
[1]; [6]
  AUC(0-t): 3950 ± 543 ng·h/mL
  half-life: 167 ± 44.4 min
  tmax: 34.8 ± 10.2 min
[1]; both sexes, F344, rat, plasma, po, 30 mg/kg, 30 mg/kg single oral, rat plasma, mean ± SD, read-out: Cmax
  Cmax: 2450 ± 561 ng/mL
[1]; both sexes, F344, rat, plasma, po, 30 mg/kg, medium-dose (30 mg/kg oral), 1.5 h, individual rats M201,M202,M203,F201,F202,F203
  concentration at 1.5 h: 413 ng/mL
[1]; [7]
  AUC(0-t): 3450 ng·h/mL
  tmax: 30 min
[1]; [8]
  AUC(0-t): 17100 ng·h/mL
  half-life: 181 ± 27 min
  tmax: 70.2 ± 22.2 min
[1]; both sexes, F344, rat, plasma, po, 100 mg/kg, 100 mg/kg single oral, rat plasma, mean ± SD, read-out: Cmax
  Cmax: 9110 ± 2180 ng/mL
[1]; both sexes, F344, rat, plasma, po, 100 mg/kg, high-dose (100 mg/kg), individual pooled profiles (animal pairs), Table S4, read-out: Cmax
  Cmax: 9010 ng/mL
[1]; both sexes, F344, rat, plasma, po, 100 mg/kg, high-dose (100 mg/kg), individual pooled profiles (animal pairs), Table S4
  tmax: 120 min
[1]; high- and medium-dose groups (100, 30 mg/kg oral)
  secondary elevation of plasma AAI concentration, time post-administration: 14 to 24 h
[1]; [9]
  AUC0→t: 17484.11 ng·h/mL and 17260.39 ng·h/mL and 32135.80 ng·h/mL and 9262.46 ng·h/mL and 9698.81 ng·h/mL and 16821.21 ng·h/mL
  CL/F: 0.76 L/h and 0.74 L/h and 0.40 L/h and 2.04 L/h and 1.79 L/h and 1.07 L/h
  Cmax: 9980.23 ng/mL and 12351.60 ng/mL and 6490.96 ng/mL and 6245.89 ng/mL and 10563.14 ng/mL
  Vd: 23.01 L and 3.33 L and 1.48 L and 11.28 L and 7.23 L and 4.20 L
